Reference: patent US20160046597A1, “RORC2 INHIBITORS AND METHODS OF USE THEREOF” (PFIZER INC., priority 2013, published 2016)

Target: T1, RORC2 ligand binding domain (6-His-RORC2 LBD) (Homo sapiens, UniProt P51449)
T1 construct: made in house; host or cells: E. coli
T1 sequence (P51449 269-508 limits assumed): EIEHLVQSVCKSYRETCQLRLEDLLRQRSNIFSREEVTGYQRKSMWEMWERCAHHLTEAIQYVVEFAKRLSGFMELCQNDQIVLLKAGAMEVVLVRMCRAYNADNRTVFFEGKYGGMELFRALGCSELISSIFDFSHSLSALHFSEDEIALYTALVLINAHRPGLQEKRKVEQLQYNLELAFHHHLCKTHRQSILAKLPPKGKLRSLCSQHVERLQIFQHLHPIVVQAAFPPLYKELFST
Experiment: Co-activator recruitment by TR-FRET (RORC2 FRET)
Type: biochemical
Details: 6.3 nM RORC2 LBD, 200 nM SRC1-2 coactivator peptide, 3 hours room temperature
From the text: The activity of compound of the invention can be determined by a co-activator recruitment by TR-FRET (time-resolved fluorescence resonance energy transfer) assay. […] Due to the long lasting fluorescence emission of Europium, the non-specific, short-lived fluorescence is time-resolved (TR) from the fluorescence of interest. Inhibitors of the interaction of receptor and coactivator peptide are detected by a decrease in TR-FRET signal.
Specifically, in one embodiment the aforementioned assay was performed as outlined below. The assay was carried out in black polystyrene, 384-well plates in a total assay volume of 50.5 μL. The assay buffer contained 50 mM TRIS-HCL pH 7.5, 1 mM NaCl, 2 mM MgCl2, 0.5 mg/mL bovine serum albumin, and 5 mM dithiothreitol.

| IC50 [nM] | Structure (SMILES) |
| --- | --- |
| 14.3 | Cn1cc(C2CCN(C(=O)CCC(F)(F)F)CC2)c2cc(NC(=O)c3cc(C#N)ccn3)ccc21 [Example 30, 4-cyano-N-{1-methyl-3-[1-(4,4,4-trifluorobutanoyl)piperidin-4-yl]-1H-indol-5-yl}pyridine-2-carboxamide] |
| 121 | Cn1cc(C2CCN(C(=O)C34CC(C3)C4)CC2)c2cc(NC(=O)c3cc(C#N)ccn3)ccc21 [Example 31, N-{3[1-(bicyclo[1.1.1]pent-1-ylcarbonyl)piperidin-4-yl]-1-methyl-1H-indol-5-yl}-4-cyanopyridine-2-carboxamide] |
| 35.5 | Cn1cc(C2CCN(C(=O)C3CC3(F)F)CC2)c2cc(NC(=O)c3cc(C#N)ccn3)ccc21 (stereo not drawn) [Example 32, 4-cyano-N-(3-{1-[(2,2-difluorocyclopropyl)carbonyl]piperidin-4-yl}-1-methyl-1H-indol-5-yl)pyridine-2-carboxamide] |
| 7.6 | Cn1cc(C2CCN(C(=O)CC3CC3)CC2)c2cc(NC(=O)c3cc(C#N)ccn3)ccc21 [Example 33, 4-cyano-N-{3-[1-(cyclopropylacetyl)piperidin-4-yl]-1-methyl-1H-indol-5-yl}pyridine-2-carboxamide] |
| 100 | COCC(=O)N1CCC(c2cn(C)c3ccc(NC(=O)c4cc(C#N)ccn4)cc23)CC1 [Example 34, 4-cyano-N-{3-[1-(methoxyacetyl)piperidin-4-yl]-1-methyl-1H-indol-5-yl}pyridine-2-carboxamide] |
| 21.6 | Cn1cc(C2CCN(C(=O)CC(F)(F)F)CC2)c2cc(NC(=O)c3cc(C#N)ccn3)ccc21 [Example 35, 4-cyano-N-{1-methyl-3-[1-(3,3,3-trifluoropropanoyl)piperidin-4-yl]-1H-indol-5-yl}pyridine-2-carboxamide] |
| 34.1 | N#Cc1ccnc(C(=O)Nc2ccc3[nH]cc(C4CCN(C(=O)C5CCCC5)CC4)c3c2)c1 [Example 37, 4-cyano-N-(3-(1-(cyclopentanecarbonyl)piperidin-4-yl)-1H-indol-5-yl)picolinamide] |
| 910 | O=C(Nc1ccc2[nH]cc(C3CCN(C(=O)C4CCCC4)CC3)c2c1)c1ccccc1F [Example 38, N-{3-[1-(cyclopentylcarbonyl)piperidin-4-yl]-1H-indol-5-yl}-2-fluorobenzamide] |
| 380 | COc1ccc(C#N)cc1C(=O)Nc1ccc2[nH]cc(C3CCN(C(=O)C4CCCC4)CC3)c2c1 [Example 40, 5-cyano-N-{3-[1-(cyclopentylcarbonyl)piperidin-4-yl]-1H-indol-5-yl}-2-methoxybenzamide] |
| 327 | N#Cc1ccc(F)c(C(=O)Nc2ccc3[nH]cc(C4CCN(C(=O)C5CCCC5)CC4)c3c2)c1 [Example 41, 5-cyano-N-{3-[1-(cyclopentylcarbonyl)piperidin-4-yl]-1H-indol-5-yl}-2-fluorobenzamide] |
| 953 | COc1ccc(C(=O)Nc2ccc3[nH]cc(C4CCN(C(=O)C5CCCC5)CC4)c3c2)nc1 [Example 42, N-{3-[1-(cyclopentylcarbonyl)piperidin-4-yl]-1H-indol-5-yl}-5-methoxypyridine-2-carboxamide] |
| 1030 | O=C(Nc1ccc2[nH]cc(C3CCN(C(=O)C4CCCC4)CC3)c2c1)c1ccc2scnc2c1 [Example 43, N-{3-[1-(cyclopentylcarbonyl)piperidin-4-yl]-1H-indol-5-yl}-1,3-benzothiazole-5-carboxamide] |
| 624 | O=C(Nc1ccc2[nH]cc(C3CCN(C(=O)C4CCCC4)CC3)c2c1)c1ccccc1Cl [Example 44, 2-chloro-N-{3-[1-(cyclopentylcarbonyl)piperidin-4-yl]-1H-indol-5-yl}benzamide] |
| 3460 | O=C(Nc1ccc2[nH]cc(C3CCN(C(=O)C4CCCC4)CC3)c2c1)c1ccc(CO)cc1 [Example 45, N-{3-[1-(cyclopentylcarbonyl)piperidin-4-yl]-1H-indol-5-yl}-4-(hydroxymethyl)benzamide] |
| 1450 | O=C(Nc1ccc2[nH]cc(C3CCN(C(=O)C4CCCC4)CC3)c2c1)c1cccc(O)c1 [Example 46, N-{3-[1-(cyclopentylcarbonyl)piperidin-4-yl]-1H-indol-5-yl}-3-hydroxybenzamide] |
| 211 | O=C(O)c1cccc(C(=O)Nc2ccc3[nH]cc(C4CCN(C(=O)C5CCCC5)CC4)c3c2)c1 [Example 48, 3-({3-[1-(cyclopentylcarbonyl)piperidin-4-yl]-1H-indol-5-yl}carbamoyl)benzoic acid] |
| 1380 | O=C(Nc1ccc2[nH]cc(C3CCN(C(=O)C4CCCC4)CC3)c2c1)c1cccc2ncsc12 [Example 49, N-{3-[1-(cyclopentylcarbonyl)piperidin-4-yl]-1H-indol-5-yl}-1,3-benzothiazole-7-carboxamide] |

| IC50 [nM] | Structure (SMILES) |
| --- | --- |
| 1430 | NC(=O)c1cccc(C(=O)Nc2ccc3[nH]cc(C4CCN(C(=O)C5CCCC5)CC4)c3c2)c1 [Example 50, N-{3-[1-(cyclopentylcarbonyl)piperidin-4-yl]-1H-indol-5-yl}isophthalamide] |
| 871 | O=C(Nc1ccc2[nH]cc(C3CCN(C(=O)C4CCCC4)CC3)c2c1)c1ccc2[nH]cnc2c1 [Example 51, N-{3-[1-(cyclopentylcarbonyl)piperidin-4-yl]-1H-indol-5-yl}-1H-benzimidazole-5-carboxamide] |
| 1110 | Cn1cnc2cc(C(=O)Nc3ccc4[nH]cc(C5CCN(C(=O)C6CCCC6)CC5)c4c3)ccc21 [Example 52, N-{3-[1-(cyclopentylcarbonyl)piperidin-4-yl]-1H-indol-5-yl}-1-methyl-1H-benzimidazole-5-carboxamide] |
| 124 | Cc1ncc(C(=O)Nc2ccc3[nH]cc(C4CCN(C(=O)C5CCCC5)CC4)c3c2)cc1C#N [Example 53, 5-cyano-N-{3-[1-(cyclopentylcarbonyl)piperidin-4-yl]-1H-indol-5-yl}-6-methylnicotinamide] |
| 256 | Cn1cc(C2CCN(C(=O)C3CCCC3)CC2)c2cc(NC(=O)N3CCCC(C#N)C3)ccc21 (stereo not drawn) [Example 58, 3-cyano-N-(3-(1-(cyclopentanecarbonyl)piperidin-4-yl)-1-methyl-1H-indol-5-yl)piperidine-1-carboxamide] |
| 330 | CN(CCC#N)C(=O)Nc1ccc2c(c1)c(C1CCN(C(=O)C3CCCC3)CC1)cn2C [Example 59, 1-(2-cyanoethyl)-3-{3-[1-(cyclopentylcarbonyl)piperidin-4-yl]-1-methyl-1H-indol-5-yl}-1-methylurea] |
| 216 | Cn1cc(C2CCN(C(=O)C3CCCC3)CC2)c2cc(NC(=O)N3CC[C@H](C#N)C3)ccc21 [Example 60, (3S)-3-cyano-N-{3-[1-(cyclopentylcarbonyl)piperidin-4-yl]-1-methyl-1H-indol-5-yl}pyrrolidine-1-carboxamide] |
| 335 | Cn1cc(C2CCN(C(=O)C3CCCC3)CC2)c2cc(NC(=O)N3CC(CC#N)C3)ccc21 [Example 61, 3-(cyanomethyl)-N-{3-[1-(cyclopentylcarbonyl)piperidin-4-yl]-1-methyl-1H-indol-5-yl}azetidine-1-carboxamide] |
| 425 | Cn1cc(C2CCN(C(=O)C3CCCC3)CC2)c2cc(NC(=O)N3CCOC(C#N)C3)ccc21 (stereo not drawn) [Example 62, 2-cyano-N-{3-[1-(cyclopentylcarbonyl)piperidin-4-yl]-1-methyl-1H-indol-5-yl}morpholine-4-carboxamide] |
| 193 | Cn1cc(C2CCN(C(=O)C3CCCC3)CC2)c2cc(NC(=O)N3CC(C#N)C3)ccc21 [Example 63, 3-cyano-N-{3-[1-(cyclopentylcarbonyl)piperidin-4-yl]-1-methyl-1H-indol-5-yl}azetidine-1-carboxamide] |
| 5.8 | Cn1cc(C2CCN(C(=O)C3CCCC3)CC2)c2cc(NS(=O)(=O)c3ccc(F)cc3)ccc21 [Example 64, N-(3-(1-(cyclopentylcarbonyl)piperidin-4-yl)-1-methyl-1H-indol-5-yl)-4-fluorobenzenesulfonamide] |
| 37.3 | Cn1cc(C2CCN(C(=O)C3CCCC3)CC2)c2cc(NS(=O)(=O)c3cnc(N)nc3)ccc21 [Example 65, 2-amino-N-{3-[1-(cyclopentylcarbonyl)piperidin-4-yl]-1-methyl-1H-indol-5-yl}pyrimidine-5-sulfonamide] |
| 7 | Cn1cc(C2CCN(C(=O)C3CCCC3)CC2)c2cc(NS(=O)(=O)c3cccc(F)c3)ccc21 [Example 66, N-{3-[1-(cyclopentylcarbonyl)piperidin-4-yl]-1-methyl-1H-indol-5-yl}-3-fluorobenzenesulfonamide] |
| 11.4 | Cn1cc(C2CCN(C(=O)C3CCCC3)CC2)c2cc(NS(=O)(=O)c3cccc(C#N)c3)ccc21 [Example 67, 3-cyano-N-{3-[1-(cyclopentylcarbonyl)piperidin-4-yl]-1-methyl-1H-indol-5-yl}benzenesulfonamide] |
| 6.5 | Cn1cc(C2CCN(C(=O)C3CCCC3)CC2)c2cc(NS(=O)(=O)c3ccccc3)ccc21 [Example 68, N-{3-[1-(cyclopentylcarbonyl)piperidin-4-yl]-1-methyl-1H-indol-5-yl}benzenesulfonamide] |
| 270 | Cn1cnc(S(=O)(=O)Nc2ccc3c(c2)c(C2CCN(C(=O)C4CCCC4)CC2)cn3C)c1 [Example 69, N-{3-[1-(cyclopentylcarbonyl)piperidin-4-yl]-1-methyl-1H-indol-5-yl}-1-methyl-1H-imidazole-4-sulfonamide] |
